# Calls of active or inactive are those of the source.
# What was measured:
# HEK293 [1] = test: cells; format: functional, cell-based; details: Homo sapiens
# [2] = target: T1, Nuclear receptor subfamily 0 group B member 1 (Homo sapiens, UniProt P51843); test: Luminescence-based cell-based high throughput dose response assay for inhibitors of the orphan nuclear receptor subfamily 0, group B, member 1 (DAX1; NR0B1). [Related pubchem assays (depositor defined):AID504766, AID504790]; format: functional
# T1 sequence (P51843 whole entry): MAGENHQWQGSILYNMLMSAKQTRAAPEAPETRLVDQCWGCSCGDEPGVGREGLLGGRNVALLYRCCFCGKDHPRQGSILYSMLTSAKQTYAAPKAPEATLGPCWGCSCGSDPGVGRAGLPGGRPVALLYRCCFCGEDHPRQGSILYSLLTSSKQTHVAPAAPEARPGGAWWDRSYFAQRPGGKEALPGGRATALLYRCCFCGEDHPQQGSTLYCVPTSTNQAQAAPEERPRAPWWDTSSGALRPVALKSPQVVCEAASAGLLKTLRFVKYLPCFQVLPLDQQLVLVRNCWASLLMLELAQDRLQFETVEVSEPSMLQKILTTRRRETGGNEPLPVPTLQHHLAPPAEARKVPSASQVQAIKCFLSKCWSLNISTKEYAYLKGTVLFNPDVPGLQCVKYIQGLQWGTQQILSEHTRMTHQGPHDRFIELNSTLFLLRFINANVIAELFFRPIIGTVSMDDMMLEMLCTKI
# [3] = target: T2, RNA-binding protein pos-1 (Caenorhabditis elegans, UniProt G5EF15); test: disruptors of C. elegans POS-1 RNA interaction – biochemical, fluorescence polarization, dose response (AID 1964);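 further: purified POS-1 fused to maltose binding protein made in E. coli; potency of compounds blocking POS-1 binding to fluorescent RNA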
# T2 sequence (G5EF15 whole entry): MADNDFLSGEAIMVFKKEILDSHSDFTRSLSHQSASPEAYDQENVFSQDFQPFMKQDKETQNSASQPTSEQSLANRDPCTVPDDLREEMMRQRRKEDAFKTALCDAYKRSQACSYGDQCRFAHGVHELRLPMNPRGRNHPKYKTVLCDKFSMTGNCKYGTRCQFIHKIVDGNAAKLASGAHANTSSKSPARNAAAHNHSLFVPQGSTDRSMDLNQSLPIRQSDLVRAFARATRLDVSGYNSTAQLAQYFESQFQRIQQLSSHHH
# [4] = target: DNA dC->dU-editing enzyme APOBEC-3A (Homo sapiens, UniProt P31941); test: Dose Response confirmation of small molecule APOBEC3A DNA Deaminase Inhibitors via a fluorescence-based single-stranded DNA deaminase assay. [Related pubchem assays (depositor defined):AID493011, AID493024]; format: functional
# [5] = target: T3, Zinc finger protein mex-5 (Caenorhabditis elegans, UniProt Q9XUB2); test: potency of MEX-5 RNA-binding blockers – biochemical, C. elegans, fluorescence polarization, dose response (AID 1960)
# T3 sequence (Q9XUB2 whole entry): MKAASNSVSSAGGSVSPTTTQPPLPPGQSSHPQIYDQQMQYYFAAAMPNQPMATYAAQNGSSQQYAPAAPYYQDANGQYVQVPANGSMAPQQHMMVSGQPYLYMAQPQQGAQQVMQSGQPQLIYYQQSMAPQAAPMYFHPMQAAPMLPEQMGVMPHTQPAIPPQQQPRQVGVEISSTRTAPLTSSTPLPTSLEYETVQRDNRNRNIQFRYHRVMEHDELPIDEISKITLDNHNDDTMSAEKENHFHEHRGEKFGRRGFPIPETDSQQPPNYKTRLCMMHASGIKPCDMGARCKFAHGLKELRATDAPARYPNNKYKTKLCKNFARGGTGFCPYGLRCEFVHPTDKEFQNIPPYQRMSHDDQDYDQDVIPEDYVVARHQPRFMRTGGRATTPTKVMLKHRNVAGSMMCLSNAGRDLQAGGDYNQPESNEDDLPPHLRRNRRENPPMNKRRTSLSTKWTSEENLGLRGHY
# [6] = target: G-protein coupled receptor 55 (Homo sapiens, UniProt Q9Y2T6); test: inhibition of LPI-stimulated GPR55 beta-arrestin translocation – imaging, U2OS, beta-arrestin-GFP, LPI agonist, primary screen (AID 2013); format: functional;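 further: antagonist potency measured as reduced agonist-driven arrestin aggregation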
# [7] = target: DNA dC->dU-editing enzyme APOBEC-3G (Homo sapiens, UniProt Q9HC16); format: functional;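 further: Dose-response counterscreen measuring inhibition of APOBEC3G DNA deaminase activity, run while confirming APOBEC3A inhibitors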
# [8] = target: Voltage-gated inwardly rectifying potassium channel KCNH2 (Homo sapiens, UniProt Q12809); details: Potency;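 further: confirmatory quantitative high-throughput screen measuring inhibition of hERG channel activity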
# [9] = target: T4, Carboxy-terminal domain RNA polymerase II polypeptide A small phosphatase 1 (Homo sapiens, UniProt Q9GZU7); test: CTDSP1 inhibitors, concentration-response, biochemical, absorbance readout, ultra-high-throughput screen actives (AID 540297); format: functional
# T4 sequence (Q9GZU7 whole entry): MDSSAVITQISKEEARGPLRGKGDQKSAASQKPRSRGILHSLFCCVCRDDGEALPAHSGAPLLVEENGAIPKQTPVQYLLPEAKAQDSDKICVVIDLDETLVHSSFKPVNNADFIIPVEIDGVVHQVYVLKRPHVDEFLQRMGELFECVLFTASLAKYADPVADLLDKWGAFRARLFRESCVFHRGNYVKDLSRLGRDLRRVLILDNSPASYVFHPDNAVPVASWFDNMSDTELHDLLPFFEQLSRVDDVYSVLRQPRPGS
# [10] = Luminescence Cell-Based Dose Retest to Confirm Inhibitors of Cancer Stem Cells. [Related pubchem assays (depositor defined):AID2717, AID2721]; format: functional; details: Homo sapiens
# Vero = test: cells; format: functional; details: Chlorocebus sabaeus
# [11] = target: T5, Small ubiquitin-related modifier 1 (Homo sapiens, UniProt P63165); test: SUMO1 protein-protein binding blockers, potency – biochemical, FRET, dose response (AID 624383); format: functional; details: read-out: IC50_Mean
# [12] = target: T5, Small ubiquitin-related modifier 1; test: SUMO1 protein interaction blockers, potency – biochemical, fluorescence polarization, uHTS hits, dose response (AID 624382); format: functional; details: read-out: IC50_Mean
# Albumin = Albumin (Bos taurus, UniProt P02769); test: Counterscreen for inhibitors of T-cell receptor (TCR)-CD3 interaction: Fluorescence-based biochemical high throughput dose response assay to identify inhibitors of T-cell receptor (TCR)-CD3 interaction using a TAMRA-labeled BSA probe.; format: functional
# HeLa = test: viability loss in HeLa cells – cell-based, 24 h, cherry-picked samples, cytotoxicity control, dose response (AID 504726); format: functional; details: Homo sapiens;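 further: potency for cytotoxicity as loss of luminescence signal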
# [13] = target: T6, Rac GTPase-activating protein 1 (Homo sapiens, UniProt Q9H0H5); test: blockers of MgcRacGAP-driven Rac1 GTP hydrolysis – biochemical, ADP Hunter fluorescence, primary and confirmatory, confirmation (AID 624330); format: functional
# T6 sequence (Q9H0H5 whole entry): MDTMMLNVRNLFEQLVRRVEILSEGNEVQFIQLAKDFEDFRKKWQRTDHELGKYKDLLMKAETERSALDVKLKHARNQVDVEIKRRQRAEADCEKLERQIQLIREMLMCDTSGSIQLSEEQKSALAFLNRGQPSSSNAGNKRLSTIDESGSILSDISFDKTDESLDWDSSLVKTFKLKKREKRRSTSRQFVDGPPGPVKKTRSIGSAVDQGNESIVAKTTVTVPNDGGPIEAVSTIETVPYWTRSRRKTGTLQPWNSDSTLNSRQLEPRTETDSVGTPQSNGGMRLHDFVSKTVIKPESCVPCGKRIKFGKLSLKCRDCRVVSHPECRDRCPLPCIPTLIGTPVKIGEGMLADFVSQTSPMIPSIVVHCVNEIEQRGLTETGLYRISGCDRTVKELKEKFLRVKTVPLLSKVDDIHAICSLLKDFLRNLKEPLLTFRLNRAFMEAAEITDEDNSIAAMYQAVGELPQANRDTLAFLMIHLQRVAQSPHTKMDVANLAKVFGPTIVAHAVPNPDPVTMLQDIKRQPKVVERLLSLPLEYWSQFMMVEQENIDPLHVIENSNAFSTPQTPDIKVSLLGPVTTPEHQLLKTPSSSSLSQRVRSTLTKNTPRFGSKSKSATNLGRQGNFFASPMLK
# [14] = target: Alkaline phosphatase, placental type (Homo sapiens, UniProt P05187); test: human placental alkaline phosphatase inhibition – biochemical, luminescence, confirmation (AID 1512); format: functional
# [15] = target: T7, Alkaline phosphatase, tissue-nonspecific isozyme (Homo sapiens, UniProt P05186); test: potency against alkaline phosphatase TNAP – biochemical, luminescent, dose response, SAR follow-up (AID 1056)
# T7 sequence (P05186 whole entry): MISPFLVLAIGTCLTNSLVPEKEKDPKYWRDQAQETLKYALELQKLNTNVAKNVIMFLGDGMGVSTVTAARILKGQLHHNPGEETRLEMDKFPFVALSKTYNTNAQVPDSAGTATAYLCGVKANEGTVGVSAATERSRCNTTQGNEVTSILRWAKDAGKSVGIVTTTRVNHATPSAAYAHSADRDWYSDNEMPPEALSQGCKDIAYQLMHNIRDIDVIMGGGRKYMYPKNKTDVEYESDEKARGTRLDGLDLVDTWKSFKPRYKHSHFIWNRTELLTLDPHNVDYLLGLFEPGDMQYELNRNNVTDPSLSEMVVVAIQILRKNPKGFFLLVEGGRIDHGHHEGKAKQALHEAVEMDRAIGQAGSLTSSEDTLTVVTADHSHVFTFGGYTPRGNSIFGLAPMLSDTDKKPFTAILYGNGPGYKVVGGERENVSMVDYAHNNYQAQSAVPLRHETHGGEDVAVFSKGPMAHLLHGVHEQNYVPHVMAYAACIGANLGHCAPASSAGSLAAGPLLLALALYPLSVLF
# Nonstructural protein 1 = Nonstructural protein 1 (Influenza A virus, UniProt Q194T2); format: functional, Influenza A virus (A/California/07/2009(H1N1))
# [16] = target: T8, Nucleotide-binding oligomerization domain-containing protein 1 (Homo sapiens, UniProt Q9Y239); test: blockers of NOD1 pathway activity – revised, SAR follow-up (AID 2333); format: functional
# T8 sequence (Q9Y239 whole entry): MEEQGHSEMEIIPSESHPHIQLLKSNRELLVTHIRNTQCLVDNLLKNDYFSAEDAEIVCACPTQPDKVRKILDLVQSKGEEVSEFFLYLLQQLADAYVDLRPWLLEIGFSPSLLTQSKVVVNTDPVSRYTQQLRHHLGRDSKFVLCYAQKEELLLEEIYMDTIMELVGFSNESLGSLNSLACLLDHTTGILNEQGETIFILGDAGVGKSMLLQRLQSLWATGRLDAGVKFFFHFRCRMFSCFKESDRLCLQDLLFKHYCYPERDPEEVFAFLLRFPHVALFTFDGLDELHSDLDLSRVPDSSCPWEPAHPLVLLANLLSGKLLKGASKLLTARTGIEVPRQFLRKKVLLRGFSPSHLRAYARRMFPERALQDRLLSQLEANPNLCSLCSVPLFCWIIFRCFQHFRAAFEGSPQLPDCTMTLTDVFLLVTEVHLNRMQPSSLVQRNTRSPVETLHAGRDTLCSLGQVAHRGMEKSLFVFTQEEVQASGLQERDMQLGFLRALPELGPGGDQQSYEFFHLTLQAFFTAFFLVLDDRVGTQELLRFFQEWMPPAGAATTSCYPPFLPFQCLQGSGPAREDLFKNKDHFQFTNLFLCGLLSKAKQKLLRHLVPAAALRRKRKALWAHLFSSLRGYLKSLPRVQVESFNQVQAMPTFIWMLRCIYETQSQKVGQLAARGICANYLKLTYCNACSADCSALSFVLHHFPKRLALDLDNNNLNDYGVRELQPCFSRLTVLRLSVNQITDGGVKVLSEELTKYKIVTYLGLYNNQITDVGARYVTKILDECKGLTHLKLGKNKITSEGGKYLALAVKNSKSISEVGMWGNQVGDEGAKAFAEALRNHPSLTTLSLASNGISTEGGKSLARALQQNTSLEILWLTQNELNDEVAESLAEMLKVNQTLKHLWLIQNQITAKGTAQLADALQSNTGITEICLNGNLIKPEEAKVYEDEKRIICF
# Tumor necrosis factor = Tumor necrosis factor (Homo sapiens, UniProt P01375); test: analog potency on TNFa NF-kB signaling – cell-based, revised, SAR follow-up (AID 2337); format: functional
# HEK293 [17] = test: cells; details: Homo sapiens
# H9c2 = test: cells; format: functional, cell-based; details: Rattus norvegicus, H9c2, Myocardium;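 further: confirmatory concentration-response retest of ultra-high-throughput screening hits for modulation of myocardial damage; cell death induced by hydrogen peroxide oxidative stress; compound pretreatment for 60 min then peroxide exposure for 2 h; potency is for protecting the cells against peroxide damage rather than for killing them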
# T5 sequence (P63165 whole entry): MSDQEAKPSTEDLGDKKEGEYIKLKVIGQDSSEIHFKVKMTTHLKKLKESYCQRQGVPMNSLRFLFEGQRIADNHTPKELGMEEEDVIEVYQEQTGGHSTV
# Chain of Tumor necrosis factor (P01375 whole entry): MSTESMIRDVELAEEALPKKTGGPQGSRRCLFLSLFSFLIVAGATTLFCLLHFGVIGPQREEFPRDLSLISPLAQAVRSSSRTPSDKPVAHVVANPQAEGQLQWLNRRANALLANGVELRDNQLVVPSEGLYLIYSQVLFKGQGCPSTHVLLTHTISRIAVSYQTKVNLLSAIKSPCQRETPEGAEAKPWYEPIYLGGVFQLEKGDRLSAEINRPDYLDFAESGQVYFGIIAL
# Chain of Alkaline phosphatase, placental type (P05187 whole entry): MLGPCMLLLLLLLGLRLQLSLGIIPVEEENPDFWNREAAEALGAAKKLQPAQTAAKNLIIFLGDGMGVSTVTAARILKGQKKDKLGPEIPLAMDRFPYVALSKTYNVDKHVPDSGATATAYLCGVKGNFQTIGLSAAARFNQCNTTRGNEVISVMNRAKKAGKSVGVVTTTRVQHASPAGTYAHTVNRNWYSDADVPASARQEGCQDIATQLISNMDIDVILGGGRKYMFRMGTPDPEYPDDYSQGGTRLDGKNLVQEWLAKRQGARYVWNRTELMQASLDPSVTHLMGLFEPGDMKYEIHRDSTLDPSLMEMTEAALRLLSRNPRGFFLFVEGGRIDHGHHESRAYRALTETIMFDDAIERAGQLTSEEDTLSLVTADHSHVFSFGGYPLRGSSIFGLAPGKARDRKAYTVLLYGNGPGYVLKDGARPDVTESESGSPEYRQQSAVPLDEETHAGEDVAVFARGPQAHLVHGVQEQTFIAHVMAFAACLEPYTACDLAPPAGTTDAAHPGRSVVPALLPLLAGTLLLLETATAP
# Chain of DNA dC->dU-editing enzyme APOBEC-3G (Q9HC16 whole entry): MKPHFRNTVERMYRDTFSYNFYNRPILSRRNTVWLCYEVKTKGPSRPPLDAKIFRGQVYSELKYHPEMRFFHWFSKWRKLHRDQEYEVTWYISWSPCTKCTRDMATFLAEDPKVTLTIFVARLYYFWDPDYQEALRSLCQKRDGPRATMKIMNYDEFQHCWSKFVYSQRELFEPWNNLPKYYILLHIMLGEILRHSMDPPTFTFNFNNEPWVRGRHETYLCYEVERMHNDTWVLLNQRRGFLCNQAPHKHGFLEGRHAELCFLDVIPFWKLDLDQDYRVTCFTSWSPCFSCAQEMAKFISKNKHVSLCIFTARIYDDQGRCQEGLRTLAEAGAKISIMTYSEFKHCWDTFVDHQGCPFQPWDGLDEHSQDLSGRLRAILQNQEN
# Chain of Nonstructural protein 1 (Q194T2 whole entry, the tested form may be a part): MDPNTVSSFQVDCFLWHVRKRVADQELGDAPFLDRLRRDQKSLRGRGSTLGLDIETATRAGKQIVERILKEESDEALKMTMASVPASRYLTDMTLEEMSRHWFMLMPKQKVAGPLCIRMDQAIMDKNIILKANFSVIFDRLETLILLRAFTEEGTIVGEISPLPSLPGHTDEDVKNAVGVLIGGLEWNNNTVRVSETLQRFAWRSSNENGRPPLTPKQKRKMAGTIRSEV
# Chain of DNA dC->dU-editing enzyme APOBEC-3A (P31941 whole entry): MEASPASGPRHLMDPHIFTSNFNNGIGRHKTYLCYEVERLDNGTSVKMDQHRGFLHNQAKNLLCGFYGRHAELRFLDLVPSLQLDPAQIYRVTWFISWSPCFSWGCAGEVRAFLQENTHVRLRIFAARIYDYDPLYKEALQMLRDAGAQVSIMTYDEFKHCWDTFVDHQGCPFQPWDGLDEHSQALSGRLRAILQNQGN
# Chain of Voltage-gated inwardly rectifying potassium channel KCNH2 (Q12809 whole entry, the tested form may be a part): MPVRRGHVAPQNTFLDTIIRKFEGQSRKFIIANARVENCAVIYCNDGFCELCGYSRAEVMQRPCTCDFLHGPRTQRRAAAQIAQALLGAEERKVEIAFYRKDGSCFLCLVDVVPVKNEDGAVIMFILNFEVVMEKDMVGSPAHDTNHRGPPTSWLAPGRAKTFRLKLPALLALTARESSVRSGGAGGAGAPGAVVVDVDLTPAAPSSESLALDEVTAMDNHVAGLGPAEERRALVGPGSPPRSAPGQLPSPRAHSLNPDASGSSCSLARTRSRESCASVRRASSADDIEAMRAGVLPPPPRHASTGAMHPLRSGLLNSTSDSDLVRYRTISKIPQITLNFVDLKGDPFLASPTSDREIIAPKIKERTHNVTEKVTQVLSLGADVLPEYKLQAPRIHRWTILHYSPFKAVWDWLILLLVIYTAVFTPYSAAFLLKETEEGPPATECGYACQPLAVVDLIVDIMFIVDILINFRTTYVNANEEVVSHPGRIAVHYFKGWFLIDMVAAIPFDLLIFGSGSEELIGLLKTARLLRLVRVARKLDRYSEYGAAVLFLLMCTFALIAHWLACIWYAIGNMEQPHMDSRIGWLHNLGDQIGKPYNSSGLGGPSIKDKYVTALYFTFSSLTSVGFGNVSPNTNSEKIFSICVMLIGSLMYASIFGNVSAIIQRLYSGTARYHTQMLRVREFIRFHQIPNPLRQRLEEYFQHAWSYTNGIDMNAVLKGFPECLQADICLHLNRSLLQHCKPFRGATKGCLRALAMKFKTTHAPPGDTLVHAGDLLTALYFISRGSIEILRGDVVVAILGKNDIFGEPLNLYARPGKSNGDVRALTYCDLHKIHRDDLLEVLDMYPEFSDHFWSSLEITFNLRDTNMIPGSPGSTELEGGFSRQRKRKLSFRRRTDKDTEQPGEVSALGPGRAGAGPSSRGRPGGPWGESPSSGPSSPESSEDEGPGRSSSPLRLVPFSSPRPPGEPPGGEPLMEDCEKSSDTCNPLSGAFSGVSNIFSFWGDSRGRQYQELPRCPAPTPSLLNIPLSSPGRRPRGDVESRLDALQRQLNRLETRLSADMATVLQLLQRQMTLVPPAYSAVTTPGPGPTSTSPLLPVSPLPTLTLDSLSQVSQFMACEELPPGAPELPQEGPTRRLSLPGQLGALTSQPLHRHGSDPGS
# Chain of Albumin (P02769 whole entry): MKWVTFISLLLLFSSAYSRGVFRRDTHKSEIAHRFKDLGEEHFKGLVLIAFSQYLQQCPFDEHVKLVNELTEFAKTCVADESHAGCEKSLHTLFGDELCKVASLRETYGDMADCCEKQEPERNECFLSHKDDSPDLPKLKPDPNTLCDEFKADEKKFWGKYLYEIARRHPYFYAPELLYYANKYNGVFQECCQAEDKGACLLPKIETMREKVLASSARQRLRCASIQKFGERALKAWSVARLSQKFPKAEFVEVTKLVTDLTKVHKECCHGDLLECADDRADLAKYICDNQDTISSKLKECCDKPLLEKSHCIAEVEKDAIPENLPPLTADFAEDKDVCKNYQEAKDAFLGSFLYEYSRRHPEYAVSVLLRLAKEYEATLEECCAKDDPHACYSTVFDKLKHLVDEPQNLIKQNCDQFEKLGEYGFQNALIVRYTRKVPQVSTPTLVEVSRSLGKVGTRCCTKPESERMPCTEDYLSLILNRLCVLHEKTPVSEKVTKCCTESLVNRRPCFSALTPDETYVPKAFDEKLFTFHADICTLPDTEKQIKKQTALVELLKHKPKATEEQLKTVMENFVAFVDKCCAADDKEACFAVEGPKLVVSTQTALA
# Chain of G-protein coupled receptor 55 (Q9Y2T6 whole entry): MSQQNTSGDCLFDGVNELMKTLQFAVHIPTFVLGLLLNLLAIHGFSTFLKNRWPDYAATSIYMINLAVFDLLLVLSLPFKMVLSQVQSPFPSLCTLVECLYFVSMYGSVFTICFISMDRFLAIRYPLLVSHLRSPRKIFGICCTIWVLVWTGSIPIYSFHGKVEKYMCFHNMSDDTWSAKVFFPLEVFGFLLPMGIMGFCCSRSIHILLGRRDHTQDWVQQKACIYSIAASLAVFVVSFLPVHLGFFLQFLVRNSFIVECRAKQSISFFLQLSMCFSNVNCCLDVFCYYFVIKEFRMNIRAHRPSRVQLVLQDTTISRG
compound,measurement,setting,value
O=C(NNc1nc2c(F)cccc2s1)c1ccccc1,IC50,HEK293 [1],> 67.5 µM (inactive)
same,IC50,[2],> 67.5 µM (inactive)
COC(=O)C1=C(C)N(Cc2ccccc2)C(=NCC(C)C)N[C@H]1c1ccccc1,EC50,[3],> 300 µM (not active)
same,IC50,[4],4.65 µM (active)
same,EC50,[5],42.7 µM (active)
same,IC50,[6],1.78 µM (active)
same,IC50,[7],4.17 µM (active)
CCCCOC(=O)c1ccccc1C(=O)OCc1ccccc1,AC50,[8],25.1 µM (inconclusive)
N#Cc1c(SCC(=O)Nc2cccc(F)c2)sc2c(O)cc(=O)[nH]c12,IC50,[9],7.26 µM (active)
O=C(Nc1ccc(Cl)cc1)c1cc2c(cc1O)[nH]c1ccccc12,AC50,[10],0.198 µM (active)
same,CC50,Vero,10.9 µM (active)
O=C(OCc1cc(=O)n2c(n1)sc1ccccc12)c1ccc(O)cc1,IC50,[9],5.75 µM (active)
COc1ccc(C(=O)N[C@H](C(=O)NCCCSc2ccccc2)C(C)C)cc1,IC50,HEK293 [1],> 67.5 µM (inactive)
same,IC50,[2],> 67.5 µM (inactive)
CCOc1ccc(Nc2ccc(N)c(S(=O)(=O)O)c2)cc1,IC50,[11],11.7 µM (active)
same,IC50,[12],> 66.6 µM (inactive)
same,IC50,[9],3.21 µM (active)
same,IC50,Albumin,> 94.1 µM (inactive)
same,AC50,HeLa,299 µM (active)
same,IC50,[13],68.9 µM (active)
CCCCN1C(=O)/C(=N\Nc2ccccc2)c2ccccc21,IC50,[14],18.7 µM (active)
same,IC50,[15],72.3 µM (active)
CN1CCN(C2CCN(c3ccc(Nc4nnc(Cl)c(Nc5ccccc5S(C)(=O)=O)n4)c(OC(CF)CF)c3)CC2)CC1,IC50,Nonstructural protein 1,> 100 µM (active)
CCOc1ccc(NC(=O)c2ccc(CCN3CCc4ccccc4C3)cc2)cc1,IC50,[16],> 20 µM (inactive)
same,IC50,Tumor necrosis factor,> 20 µM (inactive)
same,IC50,HEK293 [17],> 20 µM (inactive)
CN(C)c1ccc(NC(=O)c2ccc(CN3CCc4ccccc4C3)cc2)cc1,IC50,[16],1.61 µM (active)
same,IC50,Tumor necrosis factor,1.83 µM (active)
same,IC50,HEK293 [17],> 20 µM (inactive)
Cn1c(NCC(=O)c2ccc(O)c(O)c2)nc2ccccc21,IC50,[14],7.9 µM (active)
same,IC50,[15],8.58 µM (active)
Cc1[nH]c2ccccc2c1/C=N/NC(=O)c1cccs1,IC50,HEK293 [1],> 67.6 µM (inactive)
same,IC50,[2],> 67.6 µM (inactive)
same,IC50,H9c2,> 79 µM (inactive)

# — ChEMBL document CHEMBL1201862, “PubChem BioAssay data set” (2004)
